Test results: patent US20240262795A1, “PYRAZINE COMPOUNDS AS INHIBITORS OF FLT3” (Biomea Fusion, Inc., priority 2021, published 2024)

Target: T1, WT FLT3 (Homo sapiens, UniProt P36888)
T1 construct: purchased Invitrogen PR4666C
T1 sequence (P36888 564-993 limits assumed): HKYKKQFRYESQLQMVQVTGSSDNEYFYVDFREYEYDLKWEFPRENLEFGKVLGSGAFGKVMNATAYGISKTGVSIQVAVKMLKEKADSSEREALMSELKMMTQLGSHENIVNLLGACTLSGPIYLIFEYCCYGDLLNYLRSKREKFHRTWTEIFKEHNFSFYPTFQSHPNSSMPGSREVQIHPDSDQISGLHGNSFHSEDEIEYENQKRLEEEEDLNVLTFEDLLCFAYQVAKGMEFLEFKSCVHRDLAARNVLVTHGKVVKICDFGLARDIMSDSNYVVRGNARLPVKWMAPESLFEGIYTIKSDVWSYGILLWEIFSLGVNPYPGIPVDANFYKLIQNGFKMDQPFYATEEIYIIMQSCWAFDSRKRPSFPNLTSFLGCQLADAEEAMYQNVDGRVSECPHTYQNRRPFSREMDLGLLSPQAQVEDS
Test: WT FLT3 Lance Ultra TR-FRET kinase assay
Assay type: biochemical
In short: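 Lance Ultra TR-FRET with 50 nM ULight-JAK-1 (Tyr1023) peptide, Eu-anti-phosphotyrosine (PT66) detection, in HEPES pH 7.5 buffer at 23° C, 30 min enzyme/compound preincubation. WT: 0.5 nM enzyme, 100 μM ATP, 30 min; ITD: 0.0625 nM, 50 μM ATP, 60 min. IC50 by four-parameter fit of 11-point 3× dilutions.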

Row | IC50 [pM] | Structure (SMILES)
1 | 501 to 1000 | CCc1nc(Nc2cccc([C@@H](C)CNC(=O)CN(C)C(=O)/C=C/CN3CCC3)c2)c(C(N)=O)nc1CC [Compound 508, (R, E)-3-((3-(1-(2-(4-(azetidin-1-yl)-N-methylbut-2-enamido)acetamido)propan-2-yl)phenyl)amino)-5,6-diethylpyrazine-2-carboxamide]
2 | 101 to 200 | CCc1nc(C(N)=O)c(Nc2cccc([C@@H](C)CNC(=O)CN(C)C(=O)/C=C/CN3CCC3)c2)nc1C1CC1 [Compound 506, (R,E)-3-((3-(1-(2-(4-(azetidin-1-yl)-N-methylbut-2-enamido)acetamido)propan-2-yl)phenyl)amino)-5-cyclopropyl-6-ethylpyrazine-2-carboxamide]
3 | 201 to 500 | CCOc1nc(Nc2cccc(CCNC(=O)CN(C)C(=O)/C=C/CN3CCC3)c2)c(C(N)=O)nc1CC [Compound 602, (E)-3-((3-(2-(2-(4-(azetidin-1-yl)-N-methylbut-2-enamido)acetamido)ethyl)phenyl)amino)-5-ethoxy-6-ethylpyrazine-2-carboxamide]
4 | 201 to 500 | CCc1nc(C(N)=O)c(Nc2cccc(CCNC(=O)CN(C)C(=O)/C=C/CN(C)C)c2)nc1N(C)CC [Compound 252, (E)-3-((3-(2-(2-(4-(dimethylamino)-N-methylbut-2-enamido)acetamido)ethyl)phenyl)amino)-6-ethyl-5-(ethyl (methyl)amino) pyrazine-2-carboxamide]
5 | 201 to 500 | CCc1nc(C(N)=O)c(Nc2cc(F)cc(CCNC(=O)CN(C)C(=O)/C=C/CN3CCC3)c2)nc1C1CC1 [Compound 516, (E)-3-((3-(2-(2-(4-(azetidin-1-yl)-N-methylbut-2-enamido)acetamido)ethyl)-5-fluorophenyl)amino)-5-cyclopropyl-6-ethylpyrazine-2-carboxamide]
6 | 501 to 1000 | Cc1nc(C(N)=O)c(Nc2cccc(CCNC(=O)[C@H](C)N(C)C(=O)/C=C/CN(C)C)c2)nc1N(C)C(C)C [Compound 232, (S, E)-3-((3-(2-(2-(4-(dimethylamino)-N-methylbut-2-enamido)propanamido)ethyl)phenyl)amino)-5-(isopropyl (methyl)amino)-6-methylpyrazine-2-carboxamide]
7 | 201 to 500 | CCc1nc(C(N)=O)c(Nc2ccnc(CCNC(=O)[C@H](C)N(C)C(=O)/C=C/CN(C)C)c2)nc1N(C)C(C)C [Compound 605, (S, E)-3-((2-(2-(2-(4-(dimethylamino)-N-methylbut-2-enamido)propanamido)ethyl)pyridin-4-yl)amino)-6-ethyl-5-(isopropyl (methyl)amino) pyrazine-2-carboxamide]
8 | 501 to 1000 | CCc1nc(C(N)=O)c(Nc2cccc(CCNC(=O)CN(C)C(=O)/C=C/CN3CCC3)c2)nc1N(C)CC [Compound 516A, (E)-3-((3-(2-(2-(4-(azetidin-1-yl)-N-methylbut-2-enamido)acetamido)ethyl)phenyl)amino)-6-ethyl-5-(ethyl(methyl)amino) pyrazine-2-carboxamide]
9 | 101 to 200 | CCc1nc(C(N)=O)c(Nc2cccc(CCNC(=O)[C@H](C)N(C)C(=O)/C=C/CN(C)C)c2)nc1N(C)C(C)C [Compound 204, (S,E)-3-((3-(2-(2-(4-(dimethylamino)-N-methylbut-2-enamido)propanamido)ethyl)phenyl)amino)-6-ethyl-5-(isopropyl(methyl)amino)pyrazine-2-carboxamide]
10 | 501 to 1000 | CCc1nc(C(N)=O)c(Nc2ccnc(CCNC(=O)[C@H](C)N(C)C(=O)/C=C/CN(C)C)c2)nc1C1CC1 [Compound 310, (S,E)-5-cyclopropyl-3-((2-(2-(2-(4-(dimethylamino)-N-methylbut-2-enamido)propanamido)ethyl)pyridin-4-yl)amino)-6-ethylpyrazine-2-carboxamide]
11 | 201 to 500 | CCc1nc(C(N)=O)c(Nc2cccc(CCNC(=O)[C@H](C)N(C)C(=O)/C=C/CNC)c2)nc1N(C)C(C)C [Compound 307, (S,E)-6-ethyl-5-(isopropyl(methyl)amino)-3-((3-(2-(2-(N-methyl-4-(methylamino)but-2-enamido)propanamido)ethyl)phenyl)amino)pyrazine-2-carboxamide]
12 | 201 to 500 | CCCc1nc(Nc2cccc([C@@H](C)CNC(=O)CN(C)C(=O)/C=C/CN3CCC3)c2)c(C(N)=O)nc1CC [Compound 507, (R,E)-3-((3-(1-(2-(4-(azetidin-1-yl)-N-methylbut-2-enamido)acetamido)propan-2-yl)phenyl)amino)-6-ethyl-5-propylpyrazine-2-carboxamide]
13 | 201 to 500 | CCc1nc(C(N)=O)c(Nc2cccc([C@@H](C)CNC(=O)CN(C)C(=O)/C=C/CN3CCC3)c2)nc1N(C)CC [Compound 518, (R,E)-3-((3-(1-(2-(4-(azetidin-1-yl)-N-methylbut-2-enamido)acetamido)propan-2-yl)phenyl)amino)-6-ethyl-5-(ethyl(methyl)amino)pyrazine-2-carboxamide]
14 | 101 to 200 | CCc1nc(C(N)=O)c(Nc2cccc(CCNC(=O)[C@H](C)N(C)C(=O)/C=C/CN(C)C)c2)nc1NC(C)C [Compound 205, (S,E)-3-((3-(2-(2-(4-(dimethylamino)-N-methylbut-2-enamido)propanamido)ethyl)phenyl)amino)-6-ethyl-5-(isopropylamino)pyrazine-2-carboxamide]
15 | 201 to 500 | CCc1nc(C(N)=O)c(Nc2cccc(CCNC(=O)CN(C)C(=O)/C=C/CN3CCC3)c2)nc1OC(C)C [Compound 603, (E)-3-((3-(2-(2-(4-(azetidin-1-yl)-N-methylbut-2-enamido)acetamido)ethyl)phenyl)amino)-6-ethyl-5-isopropoxypyrazine-2-carboxamide]
16 | 201 to 500 | Cc1nc(C(N)=O)c(Nc2cccc(CCNC(=O)CN(C)C(=O)/C=C/CN(C)C)c2)nc1N(C)C(C)C [Compound 250, (E)-3-((3-(2-(2-(4-(dimethylamino)-N-methylbut-2-enamido)acetamido)ethyl)phenyl)amino)-5-(isopropyl(methyl)amino)-6-methylpyrazine-2-carboxamide]
